{"source": "patent US12304897B2", "about": "“15-PGDH inhibitors” (KYORIN PHARMACEUTICAL CO., LTD., priority 2019, dated 2025)"}
{"molecular_target": "recombinant human 15-PGDH (Homo sapiens (Human), UniProt P15428)", "sequence (P15428 whole entry)": "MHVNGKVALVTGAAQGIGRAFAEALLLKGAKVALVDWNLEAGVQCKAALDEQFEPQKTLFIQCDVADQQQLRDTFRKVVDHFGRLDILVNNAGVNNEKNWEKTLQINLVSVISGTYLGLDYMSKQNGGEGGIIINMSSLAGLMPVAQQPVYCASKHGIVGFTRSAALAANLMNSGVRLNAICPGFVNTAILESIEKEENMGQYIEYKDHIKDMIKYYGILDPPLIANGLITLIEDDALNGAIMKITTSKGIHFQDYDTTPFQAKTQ", "assay": "15-PGDH enzyme inhibition test", "type": "biochemical", "conditions": "4 nM recombinant human 15-PGDH, 30 μM PGE2, 1 mM NAD+, fluorescence 340/440 nm after 60 min", "method": "15-PGDH Enzyme Inhibition Test\nTest compounds and 4 nM recombinant human 15-PGDH (R&D systems) in 50 mM Tris-HCl (pH 8.0) containing 0.01% TWEEN 20 (Sigma) and 0.01% bovine gamma globulin (Sigma) were put into 384 Flat Bottom Black plates (Corning, 3820) and allowed to stand for 12 minutes at room temperature. Then, 30 μM PGE2 (Cayman chemical) and 1 mM NAD^+ (Sigma) were added to start reaction. Sixty minutes after the start of reaction, signals were measured at an excitation wavelength of 340 nm and a fluorescence emission wavelength of 440 nm using Synergy 2 (BioTeck). The intensity of the fluorescent signal obtained when an assay buffer was added in place of the test compounds and NAD^+ was defined as 100% and that obtained with the addition of NAD^+ was defined as 0%.", "units": {"IC50": "nM"}}
{"smiles": "CN1Cc2cc(-c3cccc4cc(C(=O)N5CCC(F)(F)CC5)ccc34)ccc2C1=O", "note": "[compound 1]", "IC50": "< 3"}
{"smiles": "C[C@H]1CCCN(C(=O)c2ccc3c(N4CCc5ncccc5C4)cccc3c2)C1", "note": "[compound 2]", "IC50": "< 3"}
{"smiles": "Cn1nc2n(c1=O)CCN(c1cccc3cc(C(=O)N4CCC[C@H](C(F)(F)F)C4)ccc13)C2", "note": "[compound 3]", "IC50": "< 3"}
{"smiles": "O=C(c1ccc2c(N3CCc4ncccc4C3)cccc2c1)N1CCC[C@H](C(F)(F)F)C1", "note": "[compound 4]", "IC50": "< 3"}
{"smiles": "O=C(c1ccc2c(N3CCc4c(cc[nH]c4=O)C3)cccc2c1)N1CCC(F)(F)CC1", "note": "[compound 5]", "IC50": "< 3"}
{"smiles": "O=C(c1ccc2c(N3CCn4c(nn(CC(F)F)c4=O)C3)cccc2c1)N1CCCC2CC21", "note": "(stereo not shown) [compound 6]", "IC50": "< 3"}
{"smiles": "O=C1NC(=O)N2CCN(c3cccc4cc(C(=O)N5CCCCC5)ccc34)CC12", "note": "(stereo not shown) [compound 7]", "IC50": "≥ 10"}
{"smiles": "CN1Cc2cc(-c3cccc4cc(C(=O)N5CCCC(C)(C)C5)ccc34)ccc2C1=O", "note": "[compound 8]", "IC50": "< 3"}
{"smiles": "CN1Cc2cc(-c3coc4cc(C(=O)N5CCCCC5)ccc34)ccc2C1=O", "note": "[compound 9]", "IC50": "< 3"}
{"smiles": "CC1c2cc(-c3cccc4cc(C(=O)N5CCC(F)(F)CC5)ccc34)ccc2C(=O)N1C", "note": "(stereo not shown) [compound 10]", "IC50": "< 3"}
{"smiles": "O=C(c1ccc2c(N3CCN4C(=O)CCC4C3)cccc2c1)N1CCCCC1", "note": "(stereo not shown) [compound 12]", "IC50": "3 to 10"}
{"smiles": "Cc1c(-c2cccc3cc(C(=O)N4CCC(F)(F)CC4)ccc23)ccc2ncccc12", "note": "[compound 13]", "IC50": "3 to 10"}
{"smiles": "CN1Cc2cc(-c3cccc4cc(C(=O)N5CCCC5)ccc34)cnc2C1=O", "note": "[compound 14]", "IC50": "< 3"}
{"smiles": "Cn1ccc2cc(-c3cccc4cc(C(=O)N5CCC(F)(F)CC5)ccc34)cnc2c1=O", "note": "[compound 15]", "IC50": "< 3"}
{"smiles": "Cc1ccc2cc(C(=O)N3CCC(F)(F)CC3)ccc2c1-c1cnc2c(c1)CN(C)C2=O", "note": "[compound 16]", "IC50": "3 to 10"}
{"smiles": "Cn1ncc2cc(-c3cccc4cc(C(=O)N5CCC(F)(F)CC5)ccc34)cnc2c1=O", "note": "[compound 17]", "IC50": "< 3"}
{"smiles": "O=C(c1ccc2c(-c3ccn4c(=O)ccnc4c3)cccc2c1)N1CCC(F)(F)CC1", "note": "[compound 18]", "IC50": "< 3"}
{"smiles": "O=C(c1ccc2c(N3CCn4c(nn(CC(F)F)c4=O)C3)cccc2c1)N1CCCCC1", "note": "[compound 19]", "IC50": "< 3"}
{"smiles": "Cn1nc2n(c1=O)CCN(c1ncc(F)c3cc(C(=O)N4CCC(F)(F)CC4)ccc13)C2", "note": "[compound 20]", "IC50": "3 to 10"}
{"smiles": "Cc1nc2n(n1)CCN(c1cccc3cc(C(=O)N4CCCCC4)ccc13)C2", "note": "[compound 21]", "IC50": "< 3"}
{"smiles": "COc1nccc2c1CCN(c1cccc3cc(C(=O)N4CCCCC4)ccc13)C2", "note": "[compound 22]", "IC50": "3 to 10"}
{"smiles": "O=C(c1ccc2c(N3CCc4c(cc[nH]c4=O)C3)cccc2c1)N1CCC[C@@H](F)C1", "note": "[compound 23]", "IC50": "< 3"}
{"smiles": "O=C1NCc2cc(-c3cccc4cc(C(=O)N5CCC(F)(F)CC5)ccc34)ccc21", "note": "[compound 24]", "IC50": "< 3"}
{"smiles": "CN1Cc2cc(-c3cccc4cc(C(=O)N5CCC[C@H](C(F)(F)F)C5)ccc34)ccc2C1=O", "note": "[compound 25]", "IC50": "< 3"}
{"smiles": "O=C(c1ccc2c(-c3ccn4c(=O)[nH]nc4c3)cccc2c1)N1CCC(F)(F)CC1", "note": "[compound 26]", "IC50": "< 3"}
{"smiles": "CN1C(=O)c2ccc(-c3cccc4cc(C(=O)N5CCC(F)(F)CC5)ccc34)cc2C1(C)C", "note": "[compound 27]", "IC50": "< 3"}
{"smiles": "CC1CC2CN(c3cccc4cc(C(=O)N5CCCCC5)ccc34)CCN2C1=O", "note": "(stereo not shown) [compound 28]", "IC50": "3 to 10"}
{"smiles": "CN1Cc2cc(-c3cccc4cc(C(=O)N5CCCCC5)cnc34)ccc2C1=O", "note": "[compound 29]", "IC50": "< 3"}
{"smiles": "O=C(c1ccc2c(-c3ccc4c(c3)CN(CCO)C4=O)cccc2c1)N1CCC(F)(F)CC1", "note": "[compound 30]", "IC50": "< 3"}
{"smiles": "C[C@H]1CCCN(C(=O)c2ccc3c(-c4ccc5c(=O)[nH]ccc5c4)cccc3c2)C1", "note": "[compound 31]", "IC50": "< 3"}
{"smiles": "CN1Cc2nc(-c3cccc4cc(C(=O)N5CCC(F)(F)CC5)ccc34)ccc2C1=O", "note": "[compound 32]", "IC50": "< 3"}
{"smiles": "Cn1c(=O)[nH]c(=O)c2ccc(-c3cccc4cc(C(=O)N5CCC(F)(F)CC5)ccc34)cc21", "note": "[compound 33]", "IC50": "< 3"}
{"smiles": "C[C@@H]1CCCN(C(=O)c2ccc3c(N4CCn5c(nn(C)c5=O)C4)cccc3c2)C1", "note": "[compound 34]", "IC50": "< 3"}
{"smiles": "C[C@@H]1CCCN(C(=O)c2ccc3c(N4CCc5c(cc[nH]c5=O)C4)cccc3c2)C1", "note": "[compound 35]", "IC50": "< 3"}
{"smiles": "Cc1cc2ncccc2cc1-c1cccc2cc(C(=O)N3CCC(F)(F)CC3)ccc12", "note": "[compound 36]", "IC50": "≥ 10"}
{"smiles": "CN1Cc2cc(-c3cccc4cc(C(=O)N5CCCCC5)ccc34)ccc2C1=O", "note": "[compound 37]", "IC50": "< 3"}
{"smiles": "Cn1cnc2cc(-c3cccc4cc(C(=O)N5CCC(F)(F)CC5)ccc34)ccc2c1=O", "note": "[compound 38]", "IC50": "< 3"}
{"smiles": "O=C1NCc2cc(-c3cccc4cc(C(=O)N5CCC(F)(F)CC5)ccc34)ncc21", "note": "[compound 39]", "IC50": "< 3"}
{"smiles": "O=C(c1ccc2c(-c3ccc4c(c3)CN(CC3CC(F)(F)C3)C4=O)cccc2c1)N1CCC(F)(F)CC1", "note": "[compound 40]", "IC50": "3 to 10"}
{"smiles": "NC(=O)c1ccc(-c2cccc3cc(C(=O)N4CCC(F)(F)CC4)ccc23)cc1F", "note": "[compound 41]", "IC50": "< 3"}
{"smiles": "CN1Cc2cc(-c3ccnc4cc(C(=O)N5CCC(F)(F)CC5)ccc34)ccc2C1=O", "note": "[compound 42]", "IC50": "< 3"}
{"smiles": "CN1Cc2cc(-c3cccc4cc(C(=O)N5CCCC5)ccc34)ccc2C1=O", "note": "[compound 43]", "IC50": "< 3"}
{"smiles": "COC(=O)CN1Cc2cc(-c3cccc4cc(C(=O)N5CCC(F)(F)CC5)ccc34)ccc2C1=O", "note": "[compound 44]", "IC50": "< 3"}
{"smiles": "COCn1ncc2cc(-c3cccc4cc(C(=O)N5CCC(F)(F)CC5)ccc34)ccc2c1=O", "note": "[compound 45]", "IC50": "< 3"}
{"smiles": "C[C@H]1CCCN(C(=O)c2ccc3c(-c4cnc5c(=O)[nH]ccc5c4)cccc3c2)C1", "note": "[compound 46]", "IC50": "< 3"}
{"smiles": "C[C@H]1CCCN(C(=O)c2ccc3c(-c4cc5cc[nH]c(=O)c5cn4)cccc3c2)C1", "note": "[compound 47]", "IC50": "< 3"}
{"smiles": "CN1Cc2cc(-c3cccc4cc(C(=O)N5CCC(C(F)(F)F)CC5)ccc34)ccc2C1=O", "note": "[compound 48]", "IC50": "< 3"}
{"smiles": "O=C(c1ccc2c(-c3ccc4c(=O)[nH]ccc4c3)c(F)ccc2c1)N1CCC(F)(F)CC1", "note": "[compound 49]", "IC50": "< 3"}
{"smiles": "O=C(c1ccc2c(N3CCc4ncccc4C3)cccc2c1)N1CCCCC1", "note": "[compound 50]", "IC50": "< 3"}
{"smiles": "Cc1nc2c(o1)CCN(c1cccc3cc(C(=O)N4CCCCC4)ccc13)C2", "note": "[compound 51]", "IC50": "3 to 10"}
{"smiles": "Cn1cc2c(n1)CCN(c1cccc3cc(C(=O)N4CCCCC4)ccc13)C2", "note": "[compound 52]", "IC50": "3 to 10"}
{"smiles": "Cc1cc(C(N)=O)ccc1-c1cccc2cc(C(=O)N3CCC(F)(F)CC3)ccc12", "note": "[compound 53]", "IC50": "3 to 10"}
{"smiles": "CN1Cc2cc(-c3cccc4cc(C(=O)N5CCCC(F)(F)C5)ccc34)ccc2C1=O", "note": "[compound 54]", "IC50": "< 3"}
{"smiles": "O=C(c1ccc2c(-c3ccc4c(c3)CN(CC3CC3)C4=O)cccc2c1)N1CCC(F)(F)CC1", "note": "[compound 55]", "IC50": "< 3"}
{"smiles": "CNC(=O)c1ccc(-c2cccc3cc(C(=O)N4CCC(F)(F)CC4)ccc23)cc1F", "note": "[compound 56]", "IC50": "3 to 10"}
{"smiles": "O=C(c1ccc2c(-c3cnc4c(=O)[nH]ncc4c3)cccc2c1)N1CCC(F)(F)CC1", "note": "[compound 57]", "IC50": "< 3"}
{"smiles": "C[C@@H]1CCN(C(=O)c2ccc3c(-c4ccc5c(c4)CN(C)C5=O)cccc3c2)C1", "note": "[compound 58]", "IC50": "< 3"}
{"smiles": "CN1Cc2cc(-c3c(F)ccc4cc(C(=O)N5CCC(F)(F)CC5)ccc34)ccc2C1=O", "note": "[compound 59]", "IC50": "< 3"}
{"smiles": "C[C@H]1CCCN(C(=O)c2ccc3c(N4CCc5c(cc[nH]c5=O)C4)cccc3c2)C1", "note": "[compound 60]", "IC50": "< 3"}
{"smiles": "O=C(c1ccc2c(N3CCc4c(cc[nH]c4=O)C3)cccc2c1)N1CCCCC1", "note": "[compound 62]", "IC50": "< 3"}
{"smiles": "CN1Cc2cc(-c3cccc4cc(C(=O)N5CCC[C@@H](F)C5)ccc34)ccc2C1=O", "note": "[compound 63]", "IC50": "< 3"}
{"smiles": "O=C(c1ccc2c(-c3ccc4c(=O)[nH]ccc4c3)cccc2c1)N1CCCCC1", "note": "[compound 64]", "IC50": "< 3"}
{"smiles": "Cn1nc2cc(-c3cccc4cc(C(=O)N5CCC(F)(F)CC5)ccc34)ccn2c1=O", "note": "[compound 65]", "IC50": "< 3"}
{"smiles": "CCN1Cc2cc(-c3cccc4cc(C(=O)N5CCC(F)(F)CC5)ccc34)ccc2C1=O", "note": "[compound 66]", "IC50": "< 3"}
{"smiles": "O=C(c1ccc2c(-c3cnc4c(=O)[nH]ccc4c3)cccc2c1)N1CCC(F)(F)CC1", "note": "[compound 67]", "IC50": "< 3"}
{"smiles": "O=C(O)c1ccc(-c2cccc3cc(C(=O)N4CCC(F)(F)CC4)ccc23)cc1F", "note": "[compound 68]", "IC50": "< 3"}
{"smiles": "CN1Cc2cc(-c3cncc4cc(C(=O)N5CCCCC5)ccc34)ccc2C1=O", "note": "[compound 69]", "IC50": "< 3"}
{"smiles": "CN1Cc2cc(-c3cccc4nc(C(=O)N5CCCCC5)ccc34)ccc2C1=O", "note": "[compound 70]", "IC50": "≥ 10"}
{"smiles": "O=C(c1ccc2c(-c3ccc4c(ccc[n+]4[O-])c3)cccc2c1)N1CCC(F)(F)CC1", "note": "[compound 71]", "IC50": "< 3"}
{"smiles": "C[C@H]1CCCN(C(=O)c2ccc3c(-c4cnc5c(c4)CN(C)C5=O)cccc3c2)C1", "note": "[compound 72]", "IC50": "< 3"}
{"smiles": "CN1Cc2cc(-c3ccc4cc(C(=O)N5CCC(F)(F)CC5)ccc4c3)ccc2C1=O", "note": "[compound 73]", "IC50": "≥ 10"}
{"smiles": "Cn1nc2n(c1=O)CCN(c1cccc3cc(C(=O)N4CCCCC4)ccc13)C2", "note": "[compound 74]", "IC50": "< 3"}
{"smiles": "Cn1nc2n(c1=O)CCN(c1cccc3cc(C(=O)N4CCC(F)(F)CC4)ccc13)C2", "note": "[compound 75]", "IC50": "< 3"}
{"smiles": "O=C(c1ccc2c(-c3ccc4ncccc4c3)cccc2c1)N1CCC(F)(F)CC1", "note": "[compound 76]", "IC50": "< 3"}
{"smiles": "Cc1ccc2c(n1)CCN(c1cccc3cc(C(=O)N4CCCCC4)ccc13)C2", "note": "[compound 77]", "IC50": "< 3"}
{"smiles": "CN1Cc2cc(-c3cccc4cc(C(=O)N5CCC(F)(F)CC5)ccc34)cnc2C1=O", "note": "[compound 78]", "IC50": "< 3"}
